Molecules are shown by their SMILES. Where a name gives a salt, the structure may show the parent alone. Where only a bound is given, the exact number is not on record here.

The target of the assay is T1, human CRF1 receptor (Homo sapiens, UniProt P34998).
T1 construct: expressed in transfected cells; host or cells: CHO cells (membrane fraction)
T1 sequence (P34998 24-415): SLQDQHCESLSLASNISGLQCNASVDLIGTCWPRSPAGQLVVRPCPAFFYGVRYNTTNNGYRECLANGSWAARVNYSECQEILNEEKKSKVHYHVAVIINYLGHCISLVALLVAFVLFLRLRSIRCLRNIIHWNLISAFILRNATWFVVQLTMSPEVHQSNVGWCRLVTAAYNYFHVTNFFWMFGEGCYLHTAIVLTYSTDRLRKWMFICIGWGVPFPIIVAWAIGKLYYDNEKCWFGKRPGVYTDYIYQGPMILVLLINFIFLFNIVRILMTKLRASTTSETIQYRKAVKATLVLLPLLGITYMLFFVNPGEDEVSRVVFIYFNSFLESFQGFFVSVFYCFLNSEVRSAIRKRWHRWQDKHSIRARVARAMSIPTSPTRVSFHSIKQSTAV
The assay can be described thus: Measurement of CRF Binding Inhibitory Rate (receptor binding experiment with 125I-CRF). The note with it: human CRF1 receptor expressing CHO cellular membrane fraction, 50 pM 125I-CRF, room temperature 1.5 hr, 0.05 nM to 10 μM of compound; read-out: IC50 values (CRF binding inhibition). How it is done:
Measurement of CRF Binding Inhibitory Rate
A receptor binding experiment was carried out using a human CRF1 receptor expressing CHO cellular membrane fraction and ovine CRF, [^125I]-tyr^0(^125I-CRF). 1000 nM of a test compound was incubated with 1 μg of human CREF receptor expressing CHO cellular membrane fraction and 50 pM of ^125I-CRF in a binding assay buffer (50 mM Tris-HCl, 5 mM EDTA, 10 mM MgCl2, 0.05% CHAPS, 0.1% BSA, 0.5 mM PMSF, 0.1 μg/mL pepstatin, 20 μg/mL leupeptin, pH 7.5). In addition, for measuring nonspecific binding (NSB), 0.1 μM unlabelled human Urocortin was incubated with 5 μg of human CRE receptor expressing CHO cellular membrane fraction and 50 pM of ^125I-CRF in a binding assay buffer. After a binding reaction was carried out at room temperature for 1.5 hr, the membrane was entrapped on a glass filter (UniFilter plate GF-C/Perkin Elmer) by suction filtration using a cell harvester (Perkin Elmer), and washed with ice-cooled 50 mM Tris-HCl (pH 7.5). After drying the glass filter, a liquid scintillation cocktail (Microscinti 0, Perkin Elmer) was added, and the radioactivity of ^125I-CRF remaining on a glass filter was measured using Topcount (Perkin Elmer).
(TB−SB)/(TB−NSB)×100 (SB: radioactivity when a compound is added, TB: maximum binding radioactivity, NSB: nonspecific binding radioactivity) were calculated to obtain binding inhibitory rates under the range of the presence from 0.05 nM to 10 μM of each compound. The IC50 values were calculated by using GraphPad Prism software.

Turning to `CCC(OC(C)=O)c1ccc(Cl)c2nc3n(c12)CCCN3c1ccc(Cl)cc1Cl` (single isomer, unassigned; (-)) [Example 239, (−)-1-[9-Chloro-1-(2,4-dichlorophenyl)-1,2,3,4-tetrahydropyrimido[1,2-a]benzimidazol-6-yl]propyl acetate], the IC50 was < 1000 nM.
For `CCN(CC)c1cccc2nc3n(c12)CCC(=O)NC3c1ccc(Cl)cc1Cl` (stereo not shown) [Example 487, 1-(2,4-Dichlorophenyl)-7-(diethylamino)-1,2,4,5-tetrahydro-3H-[1,4]diazepino[1,2-a]benzimidazol-3-one], the IC50 is < 1000 nM.
For `CCC(CC)c1ccc(Cl)c2nc3n(c12)CCN3c1c(C)cc(Cl)cc1OC` [Example 1, 8-Chloro-1-(4-chloro-2-methoxy-6-methylphenyl)-5-(1-ethylpropyl)-2,3-dihydro-1H-imidazo[1,2-a]benzimidazole], the IC50 was < 1000 nM.
As for `FC(F)(F)C(Cl)c1ccc(Cl)c2nc3n(c12)CCCN3c1c(Cl)cc(Cl)cc1Cl` (stereo not shown) [Example 412, 9-Chloro-6-(1-chloro-2,2,2-trifluoroethyl)-1-(2,4,6-trichlorophenyl)-1,2,3,4-tetrahydropyrimido[1,2-a]benzimidazole], the 50% inhibitory concentration (IC50) was < 1000 nM.
On to `CCC(CC)c1ccc(Cl)c2nc3n(c12)CCCCN3c1ccc(C)cc1` [Example 32, 10-Chloro-7-(1-ethylpropyl)-1-(4-methylphenyl)-2,3,4,5-tetrahydro-1H-[1,3]diazepino[1,2-a]benzimidazole], for which the IC50 was < 1000 nM.
In the case of `CCC(c1ccc(Cl)c2nc3n(c12)CCCN3c1ccc(OC)nc1C)C(F)F` (stereo not shown) [Example 303, 9-Chloro-6-[1-(difluoromethyl)propyl]-1-(6-methoxy-2-methylpyridin-3-yl)-1,2,3,4-tetrahydropyrimido[1,2-a]benzimidazole], the IC50 is < 1000 nM.
For `CCC(CC)c1ccc(Cl)c2nc3n(c12)CCCCN3c1ncc(N)cc1C` [Example 65, 6-[10-Chloro-7-(1-ethylpropyl)-2,3,4,5-tetrahydro-1H-[1,3]diazepino[1,2-a]benzimidazol-1-yl]-5-methylpyridin-3-amine] the value was < 1000 nM; for `CCC(OCCO)c1ccc(Cl)c2nc3n(c12)CCCN3c1ccc(Cl)cc1Cl` (stereo not shown) [Example 242, 2-{1-[9-Chloro-1-(2,4-dichlorophenyl)-1,2,3,4-tetrahydropyrimido[1,2-a]benzimidazol-6-yl]propoxy}ethanol], < 1000 nM; for `CCC(CC#N)c1ccc(Cl)c2nc3n(c12)CCCN3c1ccc(Cl)cc1Cl` (stereo not shown) [Example 316, 3-[9-Chloro-1-(2,4-dichlorophenyl)-1,2,3,4-tetrahydropyrimido[1,2-a]benzimidazol-6-yl]pentanenitrile], < 1000 nM.
Then `C=CCCC(O)c1ccc(Cl)c2nc3n(c12)CCCN3c1c(C)cc(Cl)cc1Cl` (stereo not shown) [Example 381, 1-[9-Chloro-1-(2,4-dichloro-6-methylphenyl)-1,2,3,4-tetrahydropyrimido[1,2-a]benzimidazol-6-yl]pent-4-en-1-ol], with < 1000 nM; and `CCN(CC)c1cccc2nc3n(c12)CCC=C3c1ccc(Cl)cc1Cl` [Example 492, 4-(2,4-Dichlorophenyl)-N,N-diethyl-1,2-dihydropyrido[1,2-a]benzimidazol-9-amine], with < 1000 nM.
Regarding `Cc1cc(S(C)(=O)=O)ccc1N1CCCn2c1nc1c(Cl)ccc(C(OC(F)F)C(F)(F)F)c12` (stereo not shown) [Example 477, 9-Chloro-6-[1-(difluoromethoxy)-2,2,2-trifluoroethyl]-1-[2-methyl-4-(methylsulfonyl)phenyl]-1,2,3,4-tetrahydropyrimido[1,2-a]benzimidazole], the IC50 was < 1000 nM.
As to `CCC(CC)c1ccc(Cl)c2nc3n(c12)CCCCN3c1ccc(Br)cc1C` [Example 43, 1-(4-Bromo-2-methylphenyl)-10-chloro-7-(1-ethylpropyl)-2,3,4,5-tetrahydro-1H-[1,3]diazepino[1,2-a]benzimidazole], the IC50 was < 1000 nM.
For the compound `CCO/N=C(\CC)c1ccc(Cl)c2nc3n(c12)CCCN3c1ccc(Cl)cc1Cl` [Example 123, (1E)-1-[9-Chloro-1-(2,4-dichlorophenyl)-1,2,3,4-tetrahydropyrimido[1,2-a]benzimidazol-6-yl]propan-1-one O-ethyloxime], the IC50 is < 1000 nM.
As to `CCCC(O)c1ccc(Cl)c2nc3n(c12)CCCN3c1c(C)cc(Cl)cc1Cl` (stereo not shown) [Example 140, 1-[9-Chloro-1-(2,4-dichloro-6-methylphenyl)-1,2,3,4-tetrahydropyrimido[1,2-a]benzimidazol-6-yl]butan-1-ol], the IC50 was < 1000 nM.
For `CCC(c1ccc(Cl)c2nc3n(c12)CCCN3c1ccc(Cl)cc1Cl)N(C)C(C)=O` (stereo not shown) [Example 388, N-{1-[9-Chloro-1-(2,4-dichlorophenyl)-1,2,3,4-tetrahydropyrimido[1,2-a]benzimidazol-6-yl]propyl}-N-methylacetamide] the value was < 1000 nM; for `Clc1ccc(N2CCCn3c2nc2c(Cl)ccc(N4CCCC4)c23)c(Cl)c1` [Example 196, 9-Chloro-1-(2,4-dichlorophenyl)-6-pyrrolidin-1-yl-1,2,3,4-tetrahydropyrimido[1,2-a]benzimidazole], < 1000 nM; for `CCC(CC)c1ccc(Cl)c2nc3n(c12)CC(=O)N3c1cnc(N(C)C)cc1C` [Example 9, 8-Chloro-1-[6-(dimethylamino)-4-methylpyridin-3-yl]-5-(1-ethylpropyl)-1H-imidazo[1,2-a]benzimidazol-2(3H)-one], < 1000 nM.
On to `CCC(OC(=O)C(C)C)c1ccc(Cl)c2nc3n(c12)CCCN3c1ccc(Cl)cc1Cl` (stereo not shown) [Example 480, 1-[9-Chloro-1-(2,4-dichlorophenyl)-1,2,3,4-tetrahydropyrimido[1,2-a]benzimidazol-6-yl]propyl 2-methylpropanoate], for which the IC50 is < 1000 nM.
Consider `CCOC(c1ccc(Cl)c2nc3n(c12)CCCN3c1ccc(OC)cc1Cl)C(F)(F)F` (stereo not shown) [Example 470], for which the IC50 is < 1000 nM.
For the compound `Cc1nc(C(N)=O)ccc1N1CCCn2c1nc1c(Cl)ccc(C(OC(F)F)C(F)(F)F)c12` (stereo not shown) [Example 293, 5-{9-Chloro-6-[1-(difluoromethoxy)-2,2,2-trifluoroethyl]-3,4-dihydropyrimido[1,2-a]benzimidazol-1(2H)-yl}-6-methylpyridine-2-carboxamide], the IC50 is < 1000 nM.
With `CCC(CC)c1ccc(Cl)c2nc3n(c12)CCCCN3c1cccnc1OC` [Example 55, 10-Chloro-7-(1-ethylpropyl)-1-(2-methoxypyridin-3-yl)-2,3,4,5-tetrahydro-1H-[1,3]diazepino[1,2-a]benzimidazole], the IC50 is < 1000 nM.
On to `CCC(c1ccc(Cl)c2nc3n(c12)CCCN3c1ccc(Cl)cc1Cl)N(C)S(C)(=O)=O` (stereo not shown) [Example 385, N-{1-[9-Chloro-1-(2,4-dichlorophenyl)-1,2,3,4-tetrahydropyrimido[1,2-a]benzimidazol-6-yl]propyl}-N-methylmethanesulfonamide], for which the half-maximal inhibitory concentration (IC50) was < 1000 nM.
`CC/C(=N\OC(F)F)c1ccc(Cl)c2nc3n(c12)CCCN3c1c(Cl)cc(Cl)cc1Cl` [Example 194, (1E)-1-[9-Chloro-1-(2,4,6-trichlorophenyl)-1,2,3,4-tetrahydropyrimido[1,2-a]benzimidazol-6-yl]propan-1-one O-(difluoromethyl)oxime]: the IC50 is < 1000 nM.
Regarding `OC(c1ccc(Br)c2nc3n(c12)CCCN3c1ccc(Cl)cc1Cl)(C1CC1)C1CC1` [Example 368, [9-Bromo-1-(2,4-dichlorophenyl)-1,2,3,4-tetrahydropyrimido[1,2-a]benzimidazol-6-yl](dicyclopropyl)methanol], the IC50 was < 1000 nM.
Consider `CCC(CC)c1ccc(Cl)c2nc3n(c12)CCCCN3c1ccc(OC(F)(F)F)cc1CN(C)C` [Example 42, 1-[2-[10-Chloro-7-(1-ethylpropyl)-2,3,4,5-tetrahydro-1H-[1,3]diazepino[1,2-a]benzimidazol-1-yl]-5-(trifluoromethoxy)phenyl]-N,N-dimethylmethanamine hydrochloride], for which the IC50 was < 1000 nM.
As to `CCC(CC)c1ccc(Cl)c2nc3n(c12)CCN3c1ccc(Cl)cc1C=O` [Example 6, 5-Chloro-2-[8-chloro-5-(1-ethylpropyl)-2,3-dihydro-1H-imidazo[1,2-a]benzimidazol-1-yl]benzaldehyde], the IC50 is < 1000 nM.
For `CCN(CC)c1cc(F)cc2nc3n(c12)CCCOC3c1ccc(Cl)cc1Cl` (stereo not shown) [Example 494, 1-(2,4-Dichlorophenyl)-N,N-diethyl-9-fluoro-4,5-dihydro-1H,3H-[1,4]oxazepino[4,3-a]benzimidazol-7-amine] the value was < 1000 nM.

As a reminder, the IC50 is the concentration that inhibits the measured activity by half.
